Measurements taken from US20260225970A1, “SOIL C[…] USE THEREOF” (priority 2020, published 2026).
Read-outs that look alike come from different tables or passages of the source.

System: Nitrosomonas europaea IF014298
Assay: Bioluminescence nitrification inhibition assay using a nitrifying bacterium in vitro (luxAB-introduced Nitrosomonas europaea)
Type: cell-based
Conditions: for IC80: IF014298, 0.5 h, read-out: Nitrification inhibitory activity ED80; for nitrification inhibitory activity: result in words, conclusion from the bioluminescence assay (Table 2)
Experimental: The nitrification inhibitory action of 2,7-dimethoxy-1,4-naphthoquinone was analyzed using a nitrifying bacterium in vitro (T. Iizumi, M. Mizumoto, K. Nakamura, A Bioluminescence assay using Nitrosomonas europaea for rapid and sensitive detection of nitrification inhibitors (1998) Appl. Environment. Microbiol., 64, 3656-3662).
A nitrifying bacterium (Nitrosomonas europaea IF014298) into which a luciferase gene derived from a bacterium (luxAB) had been introduced was aerobically cultured at 30° C. for 7 to 9 days in a P culture medium containing kanamycin (25 mg/l L). The obtained nitrifying bacterium was washed and then suspended in a fresh P culture medium to prepare a nitrifying bacterial suspension. This nitrifying bacterial suspension was allowed to stand in a dark place for 30 minutes or more before the experiment.
Here, the composition of the P culture medium consisted of 2.5 g of (NH4)2SO4, 0.7 g of KH2PO4, 13.5 g of Na2HPO4, 0.5 g of NaHCO3, 100 mg of MgSO4/7H2O, 5 mg of CaCl2/2H2O, 1 mg of Fe-EDTA, and 1 L of water, and the pH thereof was 8.0.
After mixing in vitro an aqueous solution of the above-described nitrifying bacterial suspension, consisting of 0.25 mL of the above-described nitrifying bacterial suspension and 0.2 mL of water, with 0.01 mL of a sample solution of 2,7-dimethoxy-1,4-naphthoquinone at various concentrations, the amount of bioluminescence associated with the nitrification reaction during culturing at 15° C. for 30 minutes was measured using a luminometer (manufactured by Turner Designs, Inc., model name: TD20/20), whereby the nitrification action was evaluated.
The amount of bioluminescence associated with the nitrification reaction decreases in a case where a substance having a nitrification inhibitory action is present in the sample solution. Therefore, the amount of luminescence in a case where each of the sample solutions of 2,7-dimethoxy-1,4-naphthoquinone at various concentrations was added to the aqueous solution of the nitrifying bacterial suspension was divided by the amount of luminescence in the case of only using the aqueous solution of the bacterial cell suspension without the sample solution being added, thereby obtaining a value as the nitrification inhibition rate. The results of measuring the nitrification inhibitory activity of the present compound at various concentrations are shown in FIG. 5.
In addition, the nitrification inhibitory activity of the 1,4-naphthoquinone derivative was measured in the same manner. In Table 2, R^1 to R^6 are each R^1 to R^6 in Formula (1), respectively.

[1] = bioluminescence during culturing at 15° C. for 30 minutes, luxAB Nitrosomonas europaea suspension in P culture medium

SMILES	IC80 [1] [µM]	nitrification inhibitory activity	IC80 (Nitrosomonas europaea) [µM]	ED50 (nitrification inhibition, dose response curve of FIG. 5, second value printed as ED50 in the same sentence, 15° C., 30 minutes) [µM]	nitrification inhibitory activity (listed as 2,7-dimethoxy-1,4-naphthoquinone)	nitrification inhibitory activity (listed as zeanone)
O=C1C=CC(=O)c2ccccc21 [1,4-Naphthoquinone]	4.4	have a nitrification inhibitory activity				
O=C1C(Cl)=C(Cl)C(=O)c2ccccc21 [2,3-Dichloro-1,4-naphthoquinone]	2.2	have a nitrification inhibitory activity				
O=C1C(Cl)=C(Cl)C(=O)c2c(O)ccc(O)c21 [2,3-Dichloro-5,8-dihydroxy-1,4-naphthoquinone]	0.9	have a nitrification inhibitory activity				
NC1=C(Cl)C(=O)c2ccccc2C1=O [2-Amino-3-chloro-1,4-naphthoquinone]	13.3	have a nitrification inhibitory activity				
O=C1C=C(Cl)C(=O)c2ccccc21 [2-Chloro-1,4-naphthoquinone]	4	have a nitrification inhibitory activity				
O=C1C=C(O)C(=O)c2ccccc21 [2-Hydroxy-1,4-naphthoquinone]	> 100	does not have a nitrification inhibitory activity				
COC1=CC(=O)c2ccccc2C1=O [2-Methoxy-1,4-naphthoquinone]	8.9	have a nitrification inhibitory activity				
CC1=CC(=O)c2ccccc2C1=O [2-Methyl-1,4-naphthoquinone]	4.4	have a nitrification inhibitory activity				
O=C1C=CC(=O)c2c(O)ccc(O)c21 [5,8-Dihydroxy-1,4-naphthoquinone]		have a nitrification inhibitory activity	2.2			
O=C1C=CC(=O)c2c(O)cccc21 [5-Hydroxy-1,4-naphthoquinone]	1.1	have a nitrification inhibitory activity				
CC1=CC(=O)c2c(O)cccc2C1=O [5-Hydroxy-2-methyl-1,4-naphthoquinone]	0.5	have a nitrification inhibitory activity				
Cc1ccc2c(c1)C(=O)C=CC2=O [6-Methyl-1,4-naphthoquinone]	2.2	have a nitrification inhibitory activity				
COC1=CC(=O)c2ccc(OC)cc2C1=O [Zeanone, 2,7-dimethoxy-1,4-naphthoquinone]	16.1			16.1	have a nitrification inhibitory activity	excellent nitrification inhibitory action
